Data from US20070054887A1, “Methods for treating bladder dysfunction” (BioXell S.p.A, priority 2003, published 2007).

Experiments:
bcl-2 = assay: Bcl-2 protein expression in hBC by immunocytochemistry; assay type: cell-based, human; details: Compound A 10 nM, alone and in the presence of KGF (10 ng/ml) or testosterone (10 nM); FIG. 6
Description: After incubation with the indicated stimuli, slides were washed twice with PBS pH 7.4 and fixed in 3.7% paraformaldehyde in PBS for 15 min at room temperature, followed by permeabilization in 3.7% paraformaldehyde in PBS, containing 0.1% Triton X-100 for 15 min at room temperature. Anti-Bcl-2 mAb (1:40) diluted in PBS containing 2% BSA was added to the slides and incubated overnight at 4° C. Slides were washed three times (5 min) in PBS and incubated 45 min at room temperature with 2% BSA-PBS, containing the secondary antibody (dilution 1:1000). After three washes in PBS, the slides were examined with a phase contrast microscope (Nikon mocrophot-FX microscopes; Nikon, Kogaku, Tokyo, Japan). Slides lacking the primary antibody or stained with the corresponding non-immune serum served as controls.

bladder strips = assay: contractile properties of isolated bladder strips from BOO model rats; parameters: species or system Sprague-Dawley rats; details: in vitro test
Description: After completion of the cystometries, the rats were sacrified by carbon monoxide asphyxiation followed by exsanguination. The abdomen was accessed through a lower midline incision whereafter the symphysis was opened. The bladder was carefully dissected free, and immediately placed in chilled Krebs solution, and strip preparations were dissected.
The bladder and urethra were separated at the level of the bladder neck, and semicircular strips were prepared from the middle third of the detrusor (1×2×5 mm). All preparations were used immediately after removal.
The strips were transferred to 5 ml tissue baths containing Krebs solution. The Krebs solution was maintained at 37° C. and bubbled continuously with a mixture of 95% O2 and 5% CO2, resulting in a pH of 7.4. The strips were suspended between two L-shaped hooks by means of silk ligatures. One hook was connected to a movable unit allowing adjustment of passive tension, and the other to a Grass FT03C (Grass Instruments Co, MA, USA) force transducer. Isometric tension was recorded using a Grass polygraph (7D). After mounting, the strips were stretched to a passive tension of 4 mN (the same tension for all preparations) and allowed to equilibrate for 45-60 min before further experiments were performed.
Electrical field stimulation (EFS) was accomplished by means of two platinum electrodes placed on either side of the preparations, and was performed using a Grass S48 or S88 stimulator, delivering single square wave pulses at selected frequencies. The train duration was 5 s, the pulse duration 0.8 ms, and the stimulation interval 2 min. The polarity of the electrodes was shifted after each pulse by means of a polarity changing unit.
Each experiment was started by exposing the preparations to a high K^+ (124 mM) Krebs solution until two reproducible contractions are obtained. Then the following experiments were carried out:
a) Electrical stimulation of nerves was performed and frequency-response relations obtained, in the presence and absence of atropine.
b) Concentration-response curves were constructed for carbachol and ATP […]

## C=C1/C(=C\C=C2/CCC[C@]3(C)C([C@@H](C)C/C=C/C(O)(CC)CC)=CC[C@@H]23)C[C@@H](O)C[C@@H]1F [Compound A, 1-alpha-fluoro-25-hydroxy-16,23E-diene-26,27-bishomo-20-epi-cholecalciferol]
bcl-2
  bcl-2 expression (percentage of bcl-2 stained cells): significantly inhibits
Bladder strips
  response to carbachol of bladder strips: beneficial effect
Bladder strips; electrical field stimulation, FIG. 21
  response to EFS of bladder strips: beneficial effect
Bladder strips; strips from treated rats, high K+ (124 mM)
  K response of bladder strips: beneficial effect
